Reference: article PMC2778288 (Journal of medicinal chemistry, 2008)

test system: primary normal human bladder epithelial cells; assay: not given; conditions: biological antiproliferation assays; cited from earlier work

| Substance | antiproliferative activity (previously determined, in words) |
| --- | --- |
| TVPAAVVVA [nonglycosylated nonapeptide] | completely inactive |
| Neu5Acα2-3Galβ1-4GlcNAcαO-SLPAAVVVA | essentially equipotent |
| Galβ1-3GalNAcβ-O-TVPAAVVVA | completely inactive |
| Galβ1-4GlcNAcα-O-SLPAAVVVA | essentially equipotent |
| Neu5Acα2-3Galβ1-3GalNAcα-O-TVPAAVVVA [APF] | essentially equipotent |
| Neu5Acα2-3Galβ1-4GlcNAcα-O-TVPAAVVVA | essentially equipotent |

test system: normal bladder epithelial as well as cells derived from urothelial carcinomas; assay: not given; conditions: native and synthetic APF; cited from earlier work

| Substance | concentrations inhibiting proliferation |
| --- | --- |
| Neu5Acα2-3Galβ1-3GalNAcα-O-TVPAAVVVA [APF] | picomolar to low nanomolar |

test system: primary normal human bladder epithelial cells; assay: 3H-thymidine incorporation; format: cell-based; conditions: not given

| Substance | antiproliferative activity relative to as-APF 1 (in words) | loss of potency/activity compared to parent as-APF 1 (orders of magnitude) |
| --- | --- | --- |
| Galβ1-3GalNAcα-O-TVPAAVVVAK(dansyl) [compound 31] | no loss of activity | – |
| Galβ1-3GalNAcα-O-TLS(^ΨMe,Mepro)-AAVVVA [compound 9] | completely abolished activity | – |
| Galβ1-3GalNAcα-O-SVPAAVVVA [compound 3] | – | 4 orders of magnitude |
| Galβ1-3GalNAcα-O-TVPAAVVVAK(Ac) [compound 35] | some of which was restored | – |
| Galβ1-3GalNAcα-O-SLPAAVVVA [compound 2] | – | 2 orders of magnitude |
| Galβ1-3GalNAcα-O-TV-Aze-AAVVVA [compound 10] | completely abolished activity | – |
| Galβ1-3GalNAcα-O-TV-Pip-AAVVVA [compound 15] | complete retention | – |
| Galβ1-3GalNAcα-O-TLPAAVVVA [compound 4] | inactivation | – |
| Galβ1-3GalNAcα-O-TVPAAGGGA [compound 26] | complete inactivation | – |
| Galβ1-3GalNAcα-O-TV-Hyp-AAVVVA [compound 12] | – | 2–3 orders of magnitude |
| Galβ1-3GalNAcα-O-TVPAAAAAA [compound 25] | decreased as-APF activity | – |
| Galβ1-3GalNAcα-O-TVPAAVVVAK [compound 33] | complete loss of activity | – |
